Measured values as given in US10251408B2, “Catechin function enhancement method” (KYUSHU UNIVERSITY, NATIONAL UNIVERSITY CORPORATION, priority 2014, dated 2019).

Experiments:
[1] = system: 3-hydroxy-3-methylglutaryl-CoA synthase (HMCGS); assay: Liver HMCGS mRNA by real-time PCR in HF/HS diet-fed mice; assay type: in vivo, mouse; settings: HF/HS diet-fed C57BL/6J mice; Yabukita 0.2% and/or eriodictyol 0.45 g/kg diet; 8 weeks; FIG. 6
Text: Male C57BL/6J mice at 12 weeks of age were preliminarily kept for 1 week and then divided into 5 groups such that the average body weight was equal in all groups, i.e., a control (AIN-93G-based diet) group, a HF/HS (high-fat high-sucrose diet) group, a Yabukita (0.2%) (HF/HS+Yabukita) group, an eriodictyol (HF/HS+eriodictyol) group, and a Yabukita+eriodictyol (HF/HS+Yabukita+eriodictyol) group. A feed supplemented with Yabukita (0.2%) and eriodictyol (0.45 g/kg diet) was given to the mice. The feed was given in an amount of 4 g/day and the mice were kept for 8 weeks under ad libitum drinking conditions. After being fasted for 16 hours, the mice were sacrificed by abdominal aortic puncture under isoflurane anesthesia. […] Yabukita and eriodictyol were examined for their effect on cholesterol metabolism-related gene expression in the liver of high-fat high-sucrose diet-fed obese model mice. C57BL/6J mice were preliminarily kept for 1 week and then divided into the respective groups such that the average body weight was equal in all groups. Each feed was given in an amount of 4 g/day and the mice were kept for 8 weeks under ad libitum drinking conditions. After being fasted for 16 hours, the mice were sacrificed by abdominal aortic puncture under isoflurane anesthesia.

[2] = system: tail suspension test-induced disuse amyotrophy in mice; assay: Tail suspension test-induced disuse amyotrophy (quadriceps femoris weight); assay type: in vivo, mouse; settings: C57BL/6J mice; 5 mg/kg intragastric once a day; tail suspension for 10 days from day 7; FIG. 4
Protocol: Male C57BL/6J mice at 12 weeks of age were divided into 5 groups such that the average body weight was equal in all groups, i.e., a GR (ground) group, a TS (tail suspension) group, an EGCG group, an eriodictyol group, and an EGCG+eriodictyol group. From the beginning of grouping, the GR and TS groups received physiological saline, the EGCG group received EGCG and the eriodictyol group received eriodictyol (5 mg/kg) by intragastric administration, while the EGCG+eriodictyol group received EGCG and eriodictyol (5 mg/kg) by intragastric administration through a sonde. For 7 days from the beginning of grouping, all the groups were kept under normal conditions, and the TS, EGCG, eriodictyol, and EGCG+eriodictyol groups were then subjected to a tail suspension test. After the tail suspension test for 10 days (at 17 days after initiation of the experiment), all the mice were sacrificed by abdominal aortic puncture under isoflurane anesthesia, and the quadriceps femoris was excised from each mouse and measured for its weight. Each sample was administered daily throughout the experimental period. […] At 10 days after starting the tail suspension test, the mice were sacrificed by abdominal aortic puncture under isoflurane anesthesia, and the quadriceps femoris was excised from each mouse and measured for its weight.

[3] = system: Human multiple myeloma cell line U266; assay: Cancer cell death induction, viable cells by trypan blue assay (96-well plate, FIG. 9); assay type: cell-based; settings: 96 hours, in combination with EGCG, EGCG 3″Me or green tea extract
Protocol: Human multiple myeloma cell line U266 was subcultured and maintained in RPMI 1640 medium supplemented with 10% FCS under conditions of 37° C. and water vapor-saturated 5% CO2. The cells were maintained in the logarithmic growth phase. The RPMI 1640 medium used for culture was prepared as follows: per liter of ultrapure water, RPMI 1640 medium (10.4 g), HEPES (2.38 g), injectable penicillin G potassium (100,000 units), streptomycin sulfate injectable (100 mg) and NaHCO3 (2.0 g) were suspended and then filter-sterilized.
The lemon peel extract used in the experiment was prepared as follows. Peels (100 g) were collected with a grater from 6 lemons and 100% EtOH (100 mL) was added thereto, followed by mashing with a mortar. The mashed mixture was further strained through gauze to remove fibers and then filtered by gravity using a #1 paper filter and a funnel to remove precipitates, followed by centrifugation at 12000×g to collect the supernatant. The resulting ethanol extract of lemon was evaporated with an evaporator to volatilize the solvent, thereby obtaining an ethanol-extracted lemon fraction. This ethanol-extracted lemon fraction was dissolved again in DMSO to give a lemon extract. […] After culture, viable cells were counted by trypan blue assay.
To evaluate the effect of combined use of EGCG or a structural analog thereof or an EGCG-containing naturally occurring product and eriodictyol or a structural analog thereof or an eriodictyol-containing naturally occurring product, human multiple myeloma cell line U266 was adjusted to 5×10^4 cells/mL and seeded in a 96-well plate, and then cultured for 96 hours in the presence of EGCG and eriodictyol added at a final concentration of 5 μM each. After culture for 96 hours, viable cells were counted by trypan blue assay.

O=C1C[C@@H](c2ccc(O)c(O)c2)Oc2cc(O)cc(O)c21 [eriodictyol]
mRNA expression level of HMCGS in the liver [1]: no effect
effect on amyotrophy (quadriceps femoris weight) [2]: no effect on amyotrophy
enhancement of the anticancer effect (viable cells) of EGCG, EGCG 3″Me or a green tea extract [3]: remarkably enhance the anticancer effect
